According to PubChem BioAssay (NCI):
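96-well plates; 48 h exposure; 5 concentrations. Endpoints by linear interpolation between flanking doses. Not reached: highest tested concentration assigned. At the TGI there is no net growth.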

Columns and labels:
Assay in all cases: NCI-60 cell line screen, 48 h
[1] = system: IGROV1 ovarian
[2] = system: A498 renal
[3] = system: LOX IMVI melanoma
[4] = system: NCI/ADR-RES ovarian
[5] = system: NCI-H23 lung
[6] = system: K-562 leukemia
[7] = system: HOP-62 NSCLC
[8] = system: DU-145 prostate
[9] = system: SF-268 CNS
[10] = system: OVCAR-8 ovarian
[11] = system: CCRF-CEM leukemia
[12] = system: UACC-257 melanoma
[13] = system: HCC-2998 colon
[14] = system: RXF 393 renal
[15] = system: CAKI-1 renal
[16] = system: NCI-H460 lung
[17] = system: MDA-N
[18] = system: SN12C renal

Structure (SMILES)	TGI [1] [µM]	TGI [2] [µM]	TGI [3] [µM]	TGI [4] [µM]	TGI [5] [µM]	TGI [6] [µM]	TGI [7] [µM]	TGI [8] [µM]	TGI [9] [µM]	TGI [10] [µM]	TGI [11] [µM]	TGI [12] [µM]	TGI [13] [µM]	TGI [14] [µM]	TGI [15] [µM]	TGI [16] [µM]	TGI [17] [µM]	TGI [18] [µM]
CC(NC1=CC(=O)c2cccnc2C1=O)C(O)c1ccccc1 (stereo unspecified)	6.18	8.82	3.16	24.2	3.01	5.93	3.03	3.65	20.8	17.6	25.5	2.84	10.8	16.5	7.23	2.78	1.3	3.04
OCCCCn1cc(Cn2ncc3c(NCc4ccccc4)ncnc32)nn1	> 100	> 100	> 100	> 100	> 100	> 100	> 100	> 100	> 100	> 100	> 100	> 100	> 100	> 100	> 100	> 100	> 100	> 100
c1ccc2c(c1)c1c3c(c4c(n32)=NCCN4)CCC1	> 100	65.8	43.3	99.7	> 100	> 100	> 100	> 100	> 100	> 100	> 100	> 100	> 100	60.8	> 100	> 100	59.3	49.4
CCC1(CC)N=C(C(F)(F)F)c2cc(C(=O)C(F)(F)F)c3ccccc3c2N1	23	35.3	13.7	42.1	11.2	> 100	28.5	21.5	27	> 100	31.1	33.9	15.3	9.87	> 100	24.1	15.7	13.7
CC/C(Cl)=N\OC(=O)Nc1ccc(OC)c(C)c1	39.1	61.2	31.1	37.5	36.5	> 91.2	> 82.5	> 100	> 77.1	39.2	> 38.8	37	43.2	31	1.84	> 100	41	32.4
CN1C(=O)C(C(=O)Nc2ccccn2)C2C[C@@]1(C)Oc1ccccc12 (stereo partly specified)	> 100	> 100	> 100	> 100	> 100	> 100	> 100	> 100	> 100	> 100	> 100	> 100	> 100	> 100	> 100	> 100	> 100	
CC(=O)Oc1c2ccsc2c(OC(C)=O)c2ccsc12	3.5	3.29	0.357	1.23	1.05	> 100	4.4	0.833	5.81	1.22	> 21.4	0.4	3.45	0.501	3.66	3.57	0.25	2.03
COC(=O)Cc1c([C@H]2[C@H](CC(=O)OC)c3ccccc3N2S(=O)(=O)c2ccc(C)cc2)[nH]c2ccccc12		> 100	> 100	> 100	> 100	> 100	> 100	> 100	> 100	> 100	> 100	> 100	> 100	> 100	> 100	> 100	> 100	> 100
c1ccc(-c2c(-c3cccs3)[nH]c(-c3cccs3)c2-c2ccccn2)nc1	59.3	78.2	37.1	64.8	> 100	37		> 100	49.8	75.2	52.5	43.6	44.3	53.5	> 100	63.5	> 100	67.9
O=[N+]([O-])c1ccc2sc(/C=N/c3ccccn3)cc2c1	> 100	> 100	> 100	> 100	> 100	96.6	> 100	> 100	94	> 100	> 100	> 100	> 100	> 100	> 100	> 100	> 100	> 100
Cc1nc2cc3ccccc3cc2[nH]c1=O	> 100	> 100	> 100	> 100	> 100	> 100	> 100	> 100	> 100	> 100	> 100	> 100	> 100	> 100	> 100	> 100	> 100	> 100
CCOC(=O)/C(C(=S)NCc1ccccc1)=C(/N)N1CCCC1	> 100	> 100	> 100	> 100	> 100	> 100	> 100	> 100	> 100	> 100	> 100	> 100	> 100	> 100	> 100	> 100	> 100	> 100
COC(=O)c1cc(O)c(O)c(O)c1-c1c(O)c(O)c(O)c(SC[C@H](NC(=O)OCc2ccccc2)C(=O)OCc2ccccc2)c1C(=O)OC	84.2	> 100	49.4	> 100	50.3	70.2	> 100	> 100	> 100	52.7	> 100	> 100	> 100	> 100	35.2	> 100	47.5	41.8
CCS(=O)c1c2cc(OC)ccc2nc2ccc(OC)cc12 (stereo unspecified)	10	33.6	> 100	44.6	19.9	5.81	51.1	6.49	> 62	15.5	> 25.6	12	41.8	17.2	9.44	> 68	16.3	8.99
COc1ccccc1/C=C1\S/C(=N/Nc2nc(C)c(C(C)=O)s2)NC1=O		45.5	> 100	> 100	> 100	> 100	> 100	> 100	96.6	> 100	> 100	> 100	> 100	> 100	> 100	> 100	88.1	> 100
Cc1ccc(S(=O)(=O)N/N=C2\CCC3(O)CC2(C)CCC2C3CC2(C)C)cc1 (stereo unspecified)	> 100	> 100	> 100	> 100	> 100	> 100	> 100	> 100	> 100	> 100	> 100	> 100	> 100	> 100	> 100	46.7	> 100	> 100
COC(=O)c1c(O)ccc2c1c1c(n2Cc2ccccc2OC)C(=O)c2ccccc2C1=O	28.3	> 100	26.3	39.2	34.8	17.3	27.8	30	29.7	27.4	17.7	55.1	15.7	30.7	37.9	16.6	37.9	25.4
Nc1ncc(C=O)c(NCC2(CO)CCC2)n1	> 100	> 100	> 100	> 100	> 100	> 100	> 100	> 100	> 100	> 100	> 100	> 100	> 100	> 100	44.3	> 100	> 100	> 100
CN(C)CCCNC(=O)c1cc(NS(=O)(=O)c2ccc3c(c2)C(=O)c2ccccc2C3=O)cn1C	75.1	42.6	39.6	> 100	64.7	> 100	> 100	76.3	72.5	> 100	> 100	37.6	57.3	57.4	> 100	54.9	60	90.7
CO[C@]12S[C@@H]3CCCC[C@@]31C(C)(C)C(=O)N2c1ccccc1	> 100	> 100	> 100	78.8	> 100	> 100	53.5	> 100	> 100	> 100	> 100	> 100	> 100	> 100	> 100	> 100	> 100	56.7
